Measured values from ChEMBL document CHEMBL1125945, “Tripyl-convergent total synthesis of a homochiral benzoindane-fused prostacyclin analog” (Bioorg Med Chem Lett, 1991).

Species on record: Homo sapiens
Test: Compound was tested for inhibitory activity against collagen induced platelet aggregation
Assay type: functional

- IC50: 2.5 µM
SMILES: O=C(O)COc1cccc2c1[C@H]1C[C@@H](O)[C@H](C#C[C@@H](O)C3CCCCC3)[C@H]1C2
